Assay results published in patent US20100061982A1, “3-SUBSTITUTED-1H-INDOLE, 3-SUBSTITUTED-1H-PYRROLO[2,3-B]PYRIDINE AND 3-SUBSTITUTED-1H-PYRROLO[3,2-B]PYRIDINE COMPOUNDS, THEIR USE AS MTOR KINASE AND PI3 KINASE INHIBITORS, AND THEIR SYNTHESES” (priority 2008, published 2010).
Converted amounts (≈) assume the structure as drawn.

Tests used:
[1] = CACO2 permeability a-b/b-a; format: in vitro ADME; settings: human, Caco-2; for Papp A→B: a − b (first value of cell), read-out: CACO2 Pe a − b; for Papp B→A: b − a (second value of cell), read-out: CACO2 Pe b − a
[2] = Microsome Stability (15 min), human; format: in vitro ADME; settings: microsomes
[3] = Microsome Stability (15 min), nude mouse; format: in vitro ADME; settings: microsomes, Phase I (NADPH), read-out: Microsome Stability (15 min) T ½ Phase I nude mouse
[4] = Microsome Stability (15 min), rat; format: in vitro ADME; settings: microsomes, Phase I (NADPH), read-out: Microsome Stability (15 min) T ½ Phase I rat
Solubility pH 7.4 = settings: pH 7.4, aqueous buffer
[5] = PAMPA permeability pH 7.4
[6] = Buffer Stability (37° C.)
[7] = Plasma Stability (37° C.), rat
[8] = Plasma Stability (37° C.), nude mouse
[9] = In vivo blood/plasma and tumor levels of prodrug and metabolites after 50 mg, kg po; settings: for plasma prodrug, Dosed @ 50 mg, kg po (precursor phenolic compound dosed) / plasma prodrug concentration / tumor prodrug concentration: 50 mg
PI3K alpha = PI3K alpha (Homo sapiens, UniProt P42336); assay: PI3K-alpha Fluorescence Polarization Assay; format: biochemical
Chain of PI3K alpha (P42336 whole entry, species assumed): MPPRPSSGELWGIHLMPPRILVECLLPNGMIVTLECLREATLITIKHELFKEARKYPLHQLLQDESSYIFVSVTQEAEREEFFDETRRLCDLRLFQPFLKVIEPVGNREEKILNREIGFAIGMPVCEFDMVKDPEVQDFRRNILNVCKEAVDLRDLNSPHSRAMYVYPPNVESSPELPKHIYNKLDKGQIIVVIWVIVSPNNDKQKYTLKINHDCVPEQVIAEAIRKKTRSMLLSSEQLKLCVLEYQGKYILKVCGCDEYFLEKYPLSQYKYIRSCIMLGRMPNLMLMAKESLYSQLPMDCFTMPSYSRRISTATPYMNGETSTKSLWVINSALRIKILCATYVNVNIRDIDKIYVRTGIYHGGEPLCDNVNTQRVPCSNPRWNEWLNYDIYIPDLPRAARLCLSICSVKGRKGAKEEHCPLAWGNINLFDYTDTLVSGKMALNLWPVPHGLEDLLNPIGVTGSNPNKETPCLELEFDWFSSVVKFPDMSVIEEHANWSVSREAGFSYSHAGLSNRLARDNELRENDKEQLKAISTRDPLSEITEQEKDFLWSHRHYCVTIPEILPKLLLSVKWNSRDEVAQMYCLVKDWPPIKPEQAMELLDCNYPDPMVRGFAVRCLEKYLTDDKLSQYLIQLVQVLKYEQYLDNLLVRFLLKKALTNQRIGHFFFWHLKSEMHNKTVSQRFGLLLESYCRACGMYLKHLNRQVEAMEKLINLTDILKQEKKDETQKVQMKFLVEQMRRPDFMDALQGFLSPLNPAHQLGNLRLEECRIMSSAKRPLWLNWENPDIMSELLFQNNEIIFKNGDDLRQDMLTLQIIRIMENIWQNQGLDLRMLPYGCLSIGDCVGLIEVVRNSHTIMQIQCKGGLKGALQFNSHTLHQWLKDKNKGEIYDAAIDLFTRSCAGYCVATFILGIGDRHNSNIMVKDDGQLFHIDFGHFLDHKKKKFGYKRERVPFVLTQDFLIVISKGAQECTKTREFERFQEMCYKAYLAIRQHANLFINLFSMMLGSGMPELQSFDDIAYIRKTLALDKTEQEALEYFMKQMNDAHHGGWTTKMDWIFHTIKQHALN
Chain of PI3K alpha (P27986 whole entry partner, species assumed): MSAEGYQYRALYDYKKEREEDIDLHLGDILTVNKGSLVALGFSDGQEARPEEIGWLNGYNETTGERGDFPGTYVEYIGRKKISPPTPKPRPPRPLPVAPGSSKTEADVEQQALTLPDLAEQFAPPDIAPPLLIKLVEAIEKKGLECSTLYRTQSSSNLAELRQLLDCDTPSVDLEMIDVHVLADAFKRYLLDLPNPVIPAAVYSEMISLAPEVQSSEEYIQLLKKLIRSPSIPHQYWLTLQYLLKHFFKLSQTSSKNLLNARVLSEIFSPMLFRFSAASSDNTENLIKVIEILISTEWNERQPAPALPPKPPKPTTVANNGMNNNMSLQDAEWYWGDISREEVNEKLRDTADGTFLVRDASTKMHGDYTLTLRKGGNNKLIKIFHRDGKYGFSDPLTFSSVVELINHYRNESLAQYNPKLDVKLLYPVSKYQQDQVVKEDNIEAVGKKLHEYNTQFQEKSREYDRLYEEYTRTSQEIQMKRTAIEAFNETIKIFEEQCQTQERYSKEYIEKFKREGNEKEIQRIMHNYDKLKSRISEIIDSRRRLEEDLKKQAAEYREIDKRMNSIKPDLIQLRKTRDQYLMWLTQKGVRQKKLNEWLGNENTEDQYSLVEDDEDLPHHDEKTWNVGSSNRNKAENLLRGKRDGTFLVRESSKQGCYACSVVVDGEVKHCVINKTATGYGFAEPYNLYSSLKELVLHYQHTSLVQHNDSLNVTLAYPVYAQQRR

mTOR = mTOR (Homo sapiens, UniProt P42345); assay: mTOR Enzyme Assay (DELFIA, purified enzyme); format: biochemical; design: FLAG; settings: read-out: mTOR Mean IC50
[10] = Phase I (NADPH), read-out: Microsome Stability (15 min) T ½ Phase I human

Row | SMILES | Papp A→B [1] [nm/s] | Papp B→A [1] [nm/s] | half-life [2, 10] [min] | half-life [4] [min] | solubility (Solubility pH 7.4) [mg/mL] | PAMPA Pe [5] | Buffer Stability (37° C.) % Remaining (at 16-23 hours) SGF [6] [%] | Buffer Stability (37° C.) % Remaining (at 16-23 hours) SIF [6] [%] | Buffer Stability (37° C.) % Remaining (at 16-23 hours) pH 1 [6] [%] | Buffer Stability (37° C.) % Remaining (at 16-23 hours) pH 4.5 [6] [%] | Buffer Stability (37° C.) % Remaining (at 16-23 hours) pH 6.6 [6] [%] | Buffer Stability (37° C.) % Remaining (at 16-23 hours) pH 7.4 [6] [%] | Buffer Stability (37° C.) % Remaining (at 16-23 hours) pH 9 [6] [%] | Plasma Stability (37° C.) % Remaining (3-3.5 hours) rat [7] [%] | Plasma Stability (37° C.) % Remaining (3-3.5 hours) nude mouse [8] [%] | IC50 (PI3K alpha) [µM] | half-life [3] [min] | plasma prodrug concentration ([9]; 0.5 h) | plasma prodrug concentration ([9]; 2 h) | tumor prodrug concentration ([9]; 0.5 h) | further results
1 | COc1ccc2c(c1)c(/C=C1\Oc3cc(O)cc(O)c3C1=O)cn2CCCN(C)C [(2Z)-2-({1-[3-(dimethylamino)propyl]-5-methoxy-1H-indol-3-yl}methylene)-4,6-dihydroxy-1-benzofuran-3(2H)-one] | 39 | 270 | > 30 | 6 | 0.033 (≈ 80.8 µM) | 0 10e−6 cm/s | 95 | 57 | 99 | 93 | 83 | 82 | 94 | 77 | 78 | – | – | – | – | – | half-life ([2]; value after the slash in Table VIc, read-out: Microsome Stability (15 min) T ½ human, second value of cell): 28 min; half-life ([3]; nude, mouse): 15 min; plasma prodrug, Dosed @ 50 mg, kg po (precursor phenolic compound dosed) ([9]; 1 h conc.): 23; plasma prodrug, Dosed @ 50 mg, kg po (precursor phenolic compound dosed) ([9]; 4 h conc.): 7
2 | COc1ccc2c(c1)c(/C=C1\Oc3cc(OC(=O)N(C(C)C)C(C)C)cc(OC(=O)N(C(C)C)C(C)C)c3C1=O)cn2CCCN(C)C [Example 4, (2Z)-2-({1-[3-(dimethylamino)propyl]-5-methoxy-1H-indol-3-yl}methylene)-3-oxo-2,3-dihydro-1-benzofuran-4,6-diyl bis(diisopropylcarbamate)] | 1.6 | 0.6 | 6 | > 30 | – | 0 10e−6 cm/s | 100 | 100 | 100 | 100 | – | 100 | 100 | 65 | 64 | > 10 | 21 | 411 ng, ml | 435 ng, ml | – | –
3 | COc1ccc2c(c1)c(/C=C1\Oc3cc(OC(=O)N(C)C)cc(OC(=O)N(C)C)c3C1=O)cn2CCCN(C)C [Example 8, (2Z)-2-({1-[3-(dimethylamino)propyl]-5-methoxy-1H-indol-3-yl}methylene)-3-oxo-2,3-dihydro-1-benzofuran-4,6-diyl bis(dimethylcarbamate)] | 48.2 | 72.2 | 15 | > 30 | 0.028 (≈ 50.9 µM) | 4.53 10e−6 cm/s | 100 | 100 | 100 | 100 | 100 | 100 | 91 | 50 | 7 | > 10 | 23 | 3122, ng, ml | 3876, ng, ml | 2170, ng, ml | tumor prodrug concentration ([9]; 2 h): 4820, ng, ml; tumor prodrug concentration ([9]; 6 h): 1482, ng, ml; plasma prodrug concentration ([9]; 6 h (third value)): 2170, ng, ml; plasma prodrug concentration ([9]; 10 h): 497 ng, ml; tumor prodrug concentration ([9]; 10 h): 556 ng, ml; plasma prodrug concentration ([9]; 24 h): 3 ng, ml; tumor prodrug concentration ([9]; 24 h): bql; blood 4-OH, 6-OR mono prodrug concentration (metabolite) ([9]; prodrug 50 mg, 24 h): bql; blood 6-OH, 4-OR mono prodrug concentration (metabolite) ([9]; prodrug 50 mg, 24 h): bql; tumor 4-OH, 6-OR mono prodrug concentration (metabolite) ([9]; prodrug 50 mg, 24 h): bql; tumor 6-OH, 4-OR mono prodrug concentration (metabolite) ([9]; prodrug 50 mg, 24 h): bql; blood precursor phenolic cpd concentration (metabolite) ([9]; prodrug 50 mg, all time points (0.5, 2, 6, 10, 24 h)): bql at all
4 | COc1ccc2c(c1)c(/C=C1\Oc3cc(OC(=O)N(C)C)cc(OC(=O)N(C)C)c3C1=O)c(C)n2CCN1CCN(C)CC1 [Example 12, (2Z)-2-({5-methoxy-2-methyl-1-[2-(4-methylpiperazin-1-yl)ethyl]-1H-indol-3-yl}methylene)-3-oxo-2,3-dihydro-1-benzofuran-4,6-diyl bis(dimethylcarbamate)] | 19.8 | 33.6 | 9 | 23 | 0.04 (≈ 66 µM) | 0.78 10e−6 cm/s | 100 | 100 | 100 | 100 | 100 | 100 | 90 | 71 | 32 | > 10 | 23 | 2444, ng, ml | 3871, ng, ml | 344, ng, ml | tumor prodrug concentration ([9]; 2 h): 1278, ng, ml; tumor prodrug concentration ([9]; 6 h): 629 ng, ml; plasma prodrug concentration ([9]; 6 h (third value)): 2027, ng, ml; plasma prodrug concentration ([9]; 10 h): 443 ng, ml; tumor prodrug concentration ([9]; 10 h): 69 ng, ml; plasma prodrug concentration ([9]; 24 h): 1 ng, ml; tumor prodrug concentration ([9]; 24 h): bql; tumor precursor phenolic cmpd concentration (metabolite) ([9]; prodrug 50 mg, 6 h (third value)): bql; blood 4-OH, 6-OR mono prodrug concentration (metabolite) ([9]; prodrug 50 mg, 24 h): bql; blood 6-OH, 4-OR mono prodrug concentration (metabolite) ([9]; prodrug 50 mg, 24 h): bql; tumor 6-OH, 4-OR mono prodrug concentration (metabolite) ([9]; prodrug 50 mg, 24 h): bql
5 | COc1ccc2c(c1)c(/C=C1\Oc3cc(OC(=O)N(C)c4ccccc4)ccc3C1=O)c(C)n2CCN1CCN(C)CC1 [Example 46, (2Z)-2-({5-methoxy-2-methyl-1-[2-(4-methylpiperazin-1-yl)ethyl]-1H-indol-3-yl}methylene)-3-oxo-2,3-dihydro-1-benzofuran-6-yl methyl(phenyl)carbamate] | – | – | – | 10 | – | Undetected | 98 | 100 | 101 | 99 | 98 | 97 | 96 | 22 | 19 | – | – | – | – | – | IC50 (mTOR): > 4 µM
